Key:
luciferase [1] = experiment: Mouse spleen luciferase levels after IV PEI:EF-1 Luc DNA complexes with drug pre-injection; assay type: in vivo; conditions: mice; day 1; IP drug two hours prior to IV PEI:DNA (12.5 μg); amlexanox 200 μg, chloroquine 1 mg, SAHA 200 μg, tofacitinib 300 μg per mouse
human factor IX = experiment: Human Factor IX ELISA in mice; conditions: 24 hrs, IP pre-treatment (VPA 2 mg/kg, Theo 30 mg/kg), 1500 nmoles DexP DOTAP SUV, 60 ug factor IX vector, Dex
Description: In this Example, three mice were injected per group. […] This was followed two minutes later by a single IV injection of 60 ug of a codon optimized, EF-1-driven single cassette DNA vector encoding the human factor IX cDNA (see constructs in FIGS. 38 and 44). […] Where indicated, animals were also pretreated by IP injection of 2 mg/kg Valproic Acid (VPA) or 30 mg/kg Theophylline (Theo). […] Each mouse was bled as for G-CSF. Blood was collected into tubes containing Potassium EDTA or Sodium Citrate to prevent coagulation and centrifuged to obtain plasma. An AssayPro ELISA specific to human Factor IX was used according to manufacturer's instructions to measure Factor IX expression.

Rituximab = experiment: Serum Rituximab ELISA in mice after sequential injection of Rituximab DNA vector; assay type: in vivo; conditions: 24 hours, IP pre-treatment (VPA 15 or 2 mg/kg, Theo 30 or 15 mg/kg), 1050 nmoles DexP liposomes, 75 ug DNA, Dex
Description: Mice were bled and serum isolated as for G-CSF. Rituximab levels were measured using an Immunoguide ELISA obtained from Eagle Biosciences, and performed according to instructions. […] .
. […] Numbered plasmids (in FIG. 30) were codon-optimized versions of the original, CpG-free but not codon optimized Rituximab DNA sequence.
. […] Thus, significant Rituximab serum levels can be produced by either dual- or single-cassette, 2A peptide-containing DNA vectors.
. Mock-injected mice received LR only without lipid or DNA. Serum levels of Rituximab protein and ALT were assayed 24 hrs later.

luciferase [2] = experiment: Mouse lung luciferase activity after IV DNA vector delivery; assay type: in vivo; conditions: mice, day 7
Description: Lung was homogenized with 500 ul of 1× Lysis buffer (Promega, Wis.). The homogenate was centrifuged at 3000×g at 4C for 10 min. and the supernatant collected. Luciferase activity was assayed using 20 μl of supernatant and 100 μl of Luciferase reagent for 10 seconds using a GloMax® Luminometer (Promega, Wis.).
In each case, cationic liposome injection was followed two minutes later by IV injection of 40 μg of an mCMV-EF1-luciferase, CPG-free, single cassette, DNA vector. […]

human G-CSF = experiment: Serum human G-CSF ELISA in mice after sequential IV cationic liposome then CPG-free DNA vector injection; assay type: in vivo; conditions: IP 2 hours before and 2 hours after 900 nmol DOTAP SUV then 70 ug DNA, dexamethasone 40 mg/kg, Tofacitinib 15 mg/kg
Description: Three to five mice were injected per group.
Each mouse was anesthetized and then bled via the submandibular vein. Serum was then isolated from whole blood and human G-CSF levels measured in pg/ml, as performed strictly according to the manufacturer's specifications, using an R and D systems human G-CSF ELISA.
Five mice were injected per group. […] Serum hG-CSF levels were assessed beginning at day seven after IV injection, and at seven-day intervals thereafter.
Sera were collected from groups of four mice at either day 6 or 14 following sequential, IV injection of 800 nmoles of pure DOTAP MLV cationic liposomes, followed two minutes later by IV injection of 40 μg either an EF1-luciferase—EF1-hGCSF (2 expression cassette) or an EF1-hGCSF (1 expression cassette), CPG-free, single plasmid DNA vector.
Sera were collected from groups of four mice at day 1 following sequential, IV injection of buffer alone (control), 1000 nmoles of pure DOTAP SUV cationic liposomes, alone or co-injected with 1000 nmol of neutral MLV, followed two minutes later by IV injection of 120 μg an EF1-luciferase—EF1-hGCSF (2 expression cassette), CPG-free, single plasmid DNA vector or 1400 nmoles of pure DOTAP SUV cationic liposomes, alone or co-injected with 1000 nmol of neutral MLV, followed two minutes later by IV injection of 100 μg of EF1-luciferase—EF1-hGCSF DNA. […]

[3] = tested on: CD20-expressing human Raji B cells; experiment: FACS binding to Raji cells; assay type: cell-based; conditions: anti-human IgG-PE, serum six weeks after injection
Description: In this Example, Raji cells (1 million/sample) were incubated with mouse serum samples or recombinant Rituximab (50 ng/ml) for 1 hr at 4C, in FACS binding buffer containing EDTA and 0.5% BSA. Following washes, samples were incubated with fluorescently labeled secondary antibody (anti-human IgG-PE) for 30 min, washed and analyzed using an Accuri flow cytometer. Between 3500-5000 events were recorded for each sample. The experiment was repeated twice with similar results.

[4] = in vivo; cited from earlier work
[5] = drug with 800 nmoles DOTAP MLV (L-arginine 2 mg/kg, colchicine 0.01 mg/kg, dexamethasone 1 mg/kg) then 40 μg single cassette mCMV-EF1-luciferase
[6] = drug with 800 nmoles DOTAP MLV then 40 μg dual cassette EF1-luciferase—EF1-hGCSF

Molecule: O=C(CCCCCCC(=O)Nc1ccccc1)NO [SAHA, suberanilohydroxamic acid]
- spleen gene expression (luciferase) levels (luciferase [1]): increased gene expression levels

Molecule: CCCC(CCC)C(=O)O [valproic acid]
- serum human factor IX levels (human factor IX): significantly higher
- serum Rituximab levels (Rituximab): significantly increased

Molecule: N=C(N)NCCC[C@H](N)C(=O)O [L-arginine]
- luciferase activity in the lung vs DOTAP MLV alone (control) (luciferase [2]; [5]): failed to increase gene expression levels
- luciferase activity in the lung vs DOTAP MLV alone (control) (luciferase [2]; [6]): either lower than or comparable to controls

Molecule: CCN(CC)CCCC(C)Nc1ccnc2cc(Cl)ccc12 (centres unmarked) [chloroquine]
- spleen gene expression (luciferase) levels (luciferase [1]): increased gene expression levels

Molecule: CCCc1nn(C)c2c(=O)[nH]c(-c3cc(S(=O)(=O)N4CCN(C)CC4)ccc3OCC)nc12 [sildenafil]
- luciferase activity in the lung vs DOTAP MLV alone (control) (luciferase [2]; [6]): higher luciferase activity

Molecule: Cn1c(=O)c2[nH]cnc2n(C)c1=O [Theophylline]
- serum human factor IX levels (human factor IX): significantly higher
- serum Rituximab levels (Rituximab): significantly increased

Molecule: C[C@@H]1CCN(C(=O)CC#N)C[C@@H]1N(C)c1ncnc2[nH]ccc12 [tofacitinib]
- HuG-CSF protein levels (human G-CSF): did neither

Molecule: COc1cc2c(c(OC)c1OC)-c1ccc(OC)c(=O)cc1[C@@H](NC(C)=O)CC2 [colchicine]
- luciferase activity in the lung vs DOTAP MLV alone (control) (luciferase [2]; [5]): higher luciferase activity

Molecule: CC(C)c1ccc2oc3nc(N)c(C(=O)O)cc3c(=O)c2c1 [amlexanox]
- spleen gene expression (luciferase) levels (luciferase [1]): increased gene expression levels

Molecule: Recombinant Rituximab: recombinant Rituximab (anti-CD20) protein used as reference
- Mean Fluorescence Intensity [3]: 5781.87

B1: Neupogen: recombinant human G-CSF protein (protein, UniProt P09919 31-207, looked up)
Granulocyte …: TPLGPASSLPQSFLLKCLEQVRKIQGDGAALQEKLVSECATYKLCHPEELVLLGHSLGIPWAPLSSCPSQALQLAGCLSQLHSGLFLYQGLLQALEGISPELGPTLDTLQLDVADFATTIWQQMEELGMAPALQPTQGAMPAFASAFQRRAGGVLVASHLQSFLEVSYRVLRHLAQP
modifications: filgrastim
- time for serum hG-CSF levels to return to baseline [4]: approximately 14 hours

Source: US10905777B2, “Systems and methods for nucleic acid expression in vivo” (DNARx, priority 2015, dated 2021)
